# Measured values as given in ChEMBL document CHEMBL1127967, “Argatroban analogs: Synthesis, thrombin inhibitory activity and cell permeability of aminoheterocyclic guanidine surrogates” (Bioorg Med Chem Lett, 1994).
# How the values were obtained:
# [1] = pKa value of the compound; assay type: physicochemical
# [2] = test system: Caco-2; test: compound was evaluated for their ability to cross a Caco-2-monolayer; assay type: functional, cell-based; conditions: Homo sapiens
# [3] = target: Prothrombin (Homo sapiens, UniProt P00734); test: Inhibitory activity against thrombin was measured by its ability to cleave the synthetic substrate S-2238(D-Phe-Pip-Arg-pNA); conditions: read-out: I50
SMILES,pKa [1],IC50 [3],Permeability coefficient [2]
"CC1CNc2c(cccc2S(=O)(=O)NC(CCCNC(=N)N)C(=O)N2CC[C@@H](C)C[C@@H]2C(=O)O)C1 (single isomer, unassigned) [ARGATROBAN]",14,–,0.3 ×10⁻⁶ cm/s
COc1ccc2ccc(S(=O)(=O)N[C@@H](CCCNc3cccnn3)C(=O)N3CCC(C)CC3)cc2c1,5.2,2.3 µM,12.1 ×10⁻⁶ cm/s
CC1CCN(C(=O)[C@H](CCCN=C(N)N)NS(=O)(=O)c2ccc3ccccc3c2)CC1,14,2.5 µM,0.4 ×10⁻⁶ cm/s

# More lines, main results first:
pKa [1],IC50 [3],SMILES,Permeability coefficient [2]
3.5,> 115 µM,CC1CCN(C(=O)[C@H](CCCNc2ncccn2)NS(=O)(=O)c2ccc3ccccc3c2)CC1,13.8 ×10⁻⁶ cm/s
6.9,5.5 µM,CC1CCN(C(=O)[C@H](CCCNc2ccccn2)NS(=O)(=O)c2ccc3ccccc3c2)CC1,–
5.2,24 µM,CC1CCN(C(=O)[C@H](CCCNc2cccnn2)NS(=O)(=O)c2ccc3ccccc3c2)CC1,12.3 ×10⁻⁶ cm/s
6.9,0.47 µM,COc1ccc2ccc(S(=O)(=O)N[C@@H](CCCNc3ccccn3)C(=O)N3CCC(C)CC3)cc2c1,3 ×10⁻⁶ cm/s
3.1,> 40 µM,CC1CCN(C(=O)[C@H](CCCNc2cnccn2)NS(=O)(=O)c2ccc3ccccc3c2)CC1,14.2 ×10⁻⁶ cm/s
